The target of test [1] is full-length MALT1 protein (Strep-MALT1(1-824)-His) (Homo sapiens (Human), UniProt Q9UDY8). In words: MALT1 Biochemical Protease Assay (Ac-LRSR-AMC substrate). Particulars: 10 nM FL MALT1, 200 μM Ac-LRSR-AMC, 4 h at RT; read-out: MALT1_Biochemical activity (Ac-LRSR-amc) IC50. In a few lines: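 Fluorescence from AMC release off the quenched LRSR substrate was read after a 4 h reaction at RT. Values were normalised to no-enzyme and uninhibited controls and fitted for IC50 and Hill coefficient.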

Test [2] has as its system IL6 secretion by TMD8 ABC-DLBCL cells. Put plainly: Human IL6 Mesoscale assay (TMD-8). In kind it is cell-based. Particulars: Homo sapiens, TMD8; TMD-8 cells, 24 h. In a few lines: (§1)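 Read-out: MSD electrochemiluminescence of IL6/IL10 in supernatants. Cells (100,000/well, no beta-mercaptoethanol) were exposed to compounds at 15 μM down to 58.6 nM, 1:2 dilutions, for 24 h at 37° C, 5% CO2. Normalised between DMSO (high) and RN486 (low) controls.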

Test [3] relates to IL10 secretion by TMD8 ABC-DLBCL cells. Put plainly: Human IL10 Mesoscale assay (TMD-8). The note with it: Homo sapiens, TMD8; TMD-8 cells, 24 h. In kind it is cell-based. Put shortly: as §1

Experimental findings from US10954214B2 (Janssen Pharmaceutica NV, priority 2016, dated 2021) are described below.

The structures appear in SMILES notation.

Sequence of full-length MALT1 protein (Strep-MALT1(1-824)-His) (Q9UDY8 whole entry): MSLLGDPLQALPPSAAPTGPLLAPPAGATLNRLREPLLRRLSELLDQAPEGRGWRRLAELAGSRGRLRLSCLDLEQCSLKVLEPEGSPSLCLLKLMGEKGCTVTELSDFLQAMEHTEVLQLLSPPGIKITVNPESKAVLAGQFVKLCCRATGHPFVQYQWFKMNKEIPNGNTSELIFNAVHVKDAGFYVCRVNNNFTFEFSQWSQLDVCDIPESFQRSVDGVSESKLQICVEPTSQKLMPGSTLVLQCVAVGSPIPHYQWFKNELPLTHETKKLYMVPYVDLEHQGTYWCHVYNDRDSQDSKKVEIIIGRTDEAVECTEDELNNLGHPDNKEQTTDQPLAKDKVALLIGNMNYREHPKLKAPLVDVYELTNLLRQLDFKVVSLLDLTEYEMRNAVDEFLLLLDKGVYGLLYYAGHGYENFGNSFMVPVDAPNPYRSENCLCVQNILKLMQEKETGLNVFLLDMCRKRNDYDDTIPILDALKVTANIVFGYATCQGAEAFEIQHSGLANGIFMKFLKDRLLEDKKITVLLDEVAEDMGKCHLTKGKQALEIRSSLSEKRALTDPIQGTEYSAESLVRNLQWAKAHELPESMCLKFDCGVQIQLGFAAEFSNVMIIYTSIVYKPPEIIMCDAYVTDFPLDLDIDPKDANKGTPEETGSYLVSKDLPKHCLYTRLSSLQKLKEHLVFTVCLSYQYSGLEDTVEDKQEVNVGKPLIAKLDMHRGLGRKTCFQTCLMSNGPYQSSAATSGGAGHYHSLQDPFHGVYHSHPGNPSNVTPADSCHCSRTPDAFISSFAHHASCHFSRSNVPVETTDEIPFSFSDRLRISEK

Consider `Cn1ncc2cc(NC(=O)c3cnn(-c4cccc5ncccc45)c3C(F)(F)F)cnc21` [Cpd 225, N-(1-methyl-1H-pyrazolo[3,4-b]pyridin-5-yl)-1-(quinolin-5-yl)-5-(trifluoromethyl)-1H-pyrazole-4-carboxamide], for which the IC50 (commonly the concentration needed to halve the response being measured) came out at 1230 nM in test [1], 407 nM in test [2] and 794 nM in test [3].

As for `Cn1ccc2c(-n3ncc(C(=O)Nc4cnc(-n5nccn5)c(Cl)c4)c3C(F)(F)F)cccc2c1=O` [Cpd 226, N-(5-chloro-6-(2H-1,2,3-triazol-2-yl)pyridin-3-yl)-1-(2-methyl-1-oxo-1,2-dihydroisoquinolin-5-yl)-5-(trifluoromethyl)-1H-pyrazole-4-carboxamide], the IC50 in test [1] is 1200 nM; in test [2], 257 nM; in test [3], 93 nM.

Turning to `N#Cc1cnnn1-c1ncc(NC(=O)c2cnn(-c3cccc4ncccc34)c2C(F)(F)F)cc1Cl` [Cpd 227, N-(5-chloro-6-(5-cyano-1H-1,2,3-triazol-1-yl)pyridin-3-yl)-1-(quinolin-5-yl)-5-(trifluoromethyl)-1H-pyrazole-4-carboxamide], the IC50 in test [1] came out at 1150 nM; in test [2], 6460 nM; in test [3] it was 550 nM.

For the compound `O=C(O)c1cnn(-c2ccc(NC(=O)c3cnn(-c4cccc5ncccc45)c3C(F)(F)F)cc2Cl)n1` [Cpd 228, 2-(2-chloro-4-(1-(quinolin-5-yl)-5-(trifluoromethyl)-1H-pyrazole-4-carboxamido)phenyl)-2H-1,2,3-triazole-4-carboxylic acid], the IC50 in test [1] came to 1120 nM; in test [2], 692 nM; in test [3], 813 nM.

For the compound `O=C(Nc1cnc2[nH]ncc2c1)c1cnn(-c2cccc3ncccc23)c1C(F)(F)F` [Cpd 229, N-(1H-pyrazolo[3,4-b]pyridin-5-yl)-1-(quinolin-5-yl)-5-(trifluoromethyl)-1H-pyrazole-4-carboxamide], the IC50 was found to be 1120 nM in test [1], 912 nM in test [2] and 331 nM in test [3].

For the compound `N#Cc1cc(NC(=O)c2cnn(-c3cccn4ccnc34)c2C(F)(F)F)cnc1-n1nccn1` [Cpd 230, N-(5-cyano-6-(2H-1,2,3-triazol-2-yl)pyridin-3-yl)-1-(imidazo[1,2-a]pyridin-8-yl)-5-(trifluoromethyl)-1H-pyrazole-4-carboxamide], the IC50 came to 1070 nM in test [1], 1410 nM in test [2] and 759 nM in test [3].

Take `O=C(Nc1cnc(-n2nccn2)c(Cl)c1)c1cnn(-c2cccc3snnc23)c1C(F)(F)F` [Cpd 231, 1-(benzo[d][1,2,3]thiadiazol-4-yl)-N-(5-chloro-6-(2H-1,2,3-triazol-2-yl)pyridin-3-yl)-5-(trifluoromethyl)-1H-pyrazole-4-carboxamide]: the IC50 in test [1] was 891 nM; in test [2], 724 nM; in test [3], 851 nM.

In the case of `O=C(O)c1cn(-c2ncc(NC(=O)c3cnn(-c4cccc5ncccc45)c3C(F)(F)F)cc2Cl)nn1` [Cpd 234, 1-(3-chloro-5-(1-(quinolin-5-yl)-5-(trifluoromethyl)-1H-pyrazole-4-carboxamido)pyridin-2-yl)-1H-1,2,3-triazole-4-carboxylic acid], the results for the IC50 in test [1], in test [2] and in test [3] were 851 nM, 263 nM and 141 nM, respectively.

For `COc1cc(NC(=O)c2cnn(-c3cccc4ncccc34)c2C(F)(F)F)cnc1-n1ccnn1` [Cpd 235, N-(5-methoxy-6-(1H-1,2,3-triazol-1-yl)pyridin-3-yl)-1-(quinolin-5-yl)-5-(trifluoromethyl)-1H-pyrazole-4-carboxamide], the values for the IC50 in test [1], in test [2] and in test [3] were 776 nM, 708 nM and 1120 nM, respectively.

`N#Cc1cc(NC(=O)c2cnn(-c3cccc4ncccc34)c2C(F)(F)F)ccc1C(=O)O` [Cpd 237, 2-cyano-4-(1-(quinolin-5-yl)-5-(trifluoromethyl)-1H-pyrazole-4-carboxamido)benzoic acid]: the results for the IC50 in test [1], in test [2] and in test [3] were 676 nM, 275 nM and 182 nM, respectively.

Take `Cn1ncc2c(-n3ncc(C(=O)Nc4cnc(-n5nccn5)c(C#N)c4)c3C(F)(F)F)cccc21` [Cpd 239, N-(5-cyano-6-(2H-1,2,3-triazol-2-yl)pyridin-3-yl)-1-(1-methyl-1H-indazol-4-yl)-5-(trifluoromethyl)-1H-pyrazole-4-carboxamide]: the values for the IC50 in test [1], in test [2] and in test [3] were 661 nM, 324 nM and 562 nM, respectively.

As to `Cc1cc(NC(=O)c2cnn(-c3cccc4ncccc34)c2C(F)(F)F)cnc1-c1nnnn1C` [Cpd 240], the IC50 in test [1] was found to be 631 nM; in test [2], 398 nM; in test [3], 135 nM.

Consider `Cc1nc2c(-n3ncc(C(=O)Nc4cnc(-n5nccn5)c(C#N)c4)c3C(F)(F)F)cccc2s1` [Cpd 245, N-(5-cyano-6-(2H-1,2,3-triazol-2-yl)pyridin-3-yl)-1-(2-methylbenzo[d]thiazol-4-yl)-5-(trifluoromethyl)-1H-pyrazole-4-carboxamide], for which the IC50 in test [1] turned out to be 389 nM; in test [2], 708 nM; in test [3], 141 nM.

In the case of `Cc1nc2cccc(-n3ncc(C(=O)Nc4cnc(-n5nccn5)c(C#N)c4)c3C(F)(F)F)c2s1` [Cpd 247, N-(5-cyano-6-(2H-1,2,3-triazol-2-yl)pyridin-3-yl)-1-(2-methylbenzo[d]thiazol-7-yl)-5-(trifluoromethyl)-1H-pyrazole-4-carboxamide], the IC50 in test [1] is 347 nM; in test [2], above 1510 nM; in test [3], 1780 nM.

As for `NCc1cnnn1-c1ncc(NC(=O)c2cnn(-c3cccc4ncccc34)c2C(F)(F)F)cc1Cl` [Cpd 248, N-(6-(5-(aminomethyl)-1H-1,2,3-triazol-1-yl)-5-chloropyridin-3-yl)-1-(quinolin-5-yl)-5-(trifluoromethyl)-1H-pyrazole-4-carboxamide], the IC50 came to 331 nM in test [1], 1510 nM in test [2] and 468 nM in test [3].

On to `COC(=O)c1cn(-c2ncc(NC(=O)c3cnn(-c4cccc5ncccc45)c3C(F)(F)F)cc2Cl)nn1` [Cpd 249, methyl 1-(3-chloro-5-(1-(quinolin-5-yl)-5-(trifluoromethyl)-1H-pyrazole-4-carboxamido)pyridin-2-yl)-1H-1,2,3-triazole-4-carboxylate], for which the results for the IC50 in test [1], in test [2] and in test [3] were 331 nM, 148 nM and 148 nM, respectively.

In the case of `Cn1ncc(-c2ncc(NC(=O)c3cnn(-c4cccc5ncccc45)c3C(F)(F)F)cc2C#N)n1` [Cpd 257, N-(5-cyano-6-(2-methyl-2H-1,2,3-triazol-4-yl)pyridin-3-yl)-1-(quinolin-5-yl)-5-(trifluoromethyl)-1H-pyrazole-4-carboxamide], the IC50 in test [1] was 234 nM; in test [2] it was above 3200 nM; in test [3], 646 nM.

Regarding `COC(=O)c1ncc(NC(=O)c2cnn(-c3cccc4ncccc34)c2C(F)(F)F)cc1Cl` [Cpd 258, methyl 3-chloro-5-(1-(quinolin-5-yl)-5-(trifluoromethyl)-1H-pyrazole-4-carboxamido)picolinate], the results for the IC50 in test [1], in test [2] and in test [3] were 229 nM, 589 nM and 316 nM, respectively.

On to `O=C(Nc1cnc(-n2nccn2)c(Cl)c1)c1cnn(-c2ccc(F)c3cccnc23)c1C(F)(F)F` [Cpd 261, N-(5-chloro-6-(2H-1,2,3-triazol-2-yl)pyridin-3-yl)-1-(5-fluoroquinolin-8-yl)-5-(trifluoromethyl)-1H-pyrazole-4-carboxamide], for which the 50% inhibitory concentration (IC50) in test [1] worked out at 195 nM; in test [2], 794 nM; in test [3], 479 nM.

In the case of `N#Cc1cc(NC(=O)c2cnn(-c3ncc(F)c4ccccc34)c2C(F)(F)F)cnc1-n1nccn1` [Cpd 263, N-(5-cyano-6-(2H-1,2,3-triazol-2-yl)pyridin-3-yl)-1-(4-fluoroisoquinolin-1-yl)-5-(trifluoromethyl)-1H-pyrazole-4-carboxamide], the IC50 in test [1] is 191 nM; in test [2] it was above 302 nM; in test [3], above 302 nM.

Consider `O=C(Nc1cnc(-n2nccn2)c(Cl)c1)c1cnn(-c2cnc(F)c3ccccc23)c1C(F)(F)F` [Cpd 264, N-(5-chloro-6-(2H-1,2,3-triazol-2-yl)pyridin-3-yl)-1-(1-fluoroisoquinolin-4-yl)-5-(trifluoromethyl)-1H-pyrazole-4-carboxamide], for which the values for the IC50 in test [1], in test [2] and in test [3] were 166 nM, 123 nM and 36 nM, respectively.

As for `Cn1nc(-n2ncc(C(=O)Nc3cnc(-n4nccn4)c(C#N)c3)c2C(F)(F)F)c2cccnc21` [Cpd 265, N-(5-cyano-6-(2H-1,2,3-triazol-2-yl)pyridin-3-yl)-1-(1-methyl-1H-pyrazolo[3,4-b]pyridin-3-yl)-5-(trifluoromethyl)-1H-pyrazole-4-carboxamide], the IC50 is 166 nM in test [1], above 1510 nM in test [2] and 120 nM in test [3].

For `COC(=O)c1cc(-c2ncc(NC(=O)c3cnn(-c4cccc5ncccc45)c3C(F)(F)F)cc2C#N)nn1C` [Cpd 267, methyl 3-(3-cyano-5-(1-(quinolin-5-yl)-5-(trifluoromethyl)-1H-pyrazole-4-carboxamido)pyridin-2-yl)-1-methyl-1H-pyrazole-5-carboxylate], the IC50 amounted to 155 nM in test [1], 35 nM in test [2] and 56 nM in test [3].
